Experimental findings from patent US8450317B2, “CXCR3 receptor antagonists” (Boehringer Ingelheim International GmbH, priority 2009, dated 2013) are described below.

pIC50: −log10 of the molar value.

In general, pIC50 refers to −log10 of the IC50, conventionally taken in molar units.

Sequence of CXCR3 (A0A2K5UV19 entry or part of it): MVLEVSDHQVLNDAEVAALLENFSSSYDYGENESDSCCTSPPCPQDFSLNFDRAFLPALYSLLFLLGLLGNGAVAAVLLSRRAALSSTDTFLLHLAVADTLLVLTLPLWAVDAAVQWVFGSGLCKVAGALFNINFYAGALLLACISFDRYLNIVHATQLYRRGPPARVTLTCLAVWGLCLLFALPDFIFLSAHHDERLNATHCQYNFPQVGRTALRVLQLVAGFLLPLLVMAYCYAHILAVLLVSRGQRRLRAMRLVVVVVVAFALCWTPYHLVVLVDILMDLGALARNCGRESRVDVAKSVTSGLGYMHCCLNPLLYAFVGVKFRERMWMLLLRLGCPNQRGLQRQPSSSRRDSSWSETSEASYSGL

This assay concerns the target CXCR3 (Macaca fascicularis, UniProt A0A2K5UV19). Description: functional cellular assay measuring calcium flux in CXCR3 transfected cells (block of CXCR3/IP-10 interaction). The format is cell-based, Cyno. To be noted: IP-10 induced intracellular calcium flux; Cyno-CHO cells stably expressing recombinant CXCR3 and G-alpha-16; IP-10 at EC80; read-out: IC50. The protocol:
Compounds are assessed for the ability to block the interaction of CXCR3 and IP-10 in a functional cellular assay measuring calcium flux in CXCR3 transfected cells.
Cyno-CHO cells, stably expressing recombinant CXCR3 and G-alpha-16 are grown in F12 medium (Mediatech #45000-360) supplemented with 10% (V/V) FBS (Mediatech #35-01500), 1% Geneticin (Invitrogen #10131-027) and 0.2% Zeocin (Invitrogen #R250-05). The cells are spun down and re-suspended in growth media to a concentration of […]. 25 microL of cell suspension is added to each well of a BD-384-well TC treated plate, providing 12,000 cells/well. The plate is incubated at 37° C./5% CO2 overnight. On the day of the assay, the plates are removed, the media is flicked out and 25 microL of Ca-4 dye in assay buffer (HBSS, 10 mM HEPES ph 7.4), containing 2 mM probenacid is added to each well. The cell assay plates are then incubated at 37° C./5% CO2 for one hour.
Test compounds are dissolved in DMSO and diluted to 1.045 mM in DMSO. Just prior to assay, 2.75 microL of appropriately diluted test compound are added to each well of a 384 well plate containing 45 microL of HBSS buffer. After mixing, 5 microL of diluted compound are added to each well of the cell assay plate for a final assay concentration of 10 microM. The plate is incubated at room temperature for 15 min. 10 microL of IP-10 stock solution in HBSS (4× EC80 concentration) are added to each well of the cell assay plate except those cells reserved as blank wells containing buffer only. Intracellular calcium flux is recorded on the HAMAMTSU FDSS6000, using excitation at 480 nm and emission at 540 nm. Data are analyzed using Activity Base software.
In general, the preferred potency range (IC50) of compounds in the above assay is between 1 nM to 3 μM, and the most preferred potency range is 1 nM to 200 nM.
Take `COc1cc(NC(=O)c2cc(F)ccc2N2CCN(C(=O)Cn3ccc4cccnc43)[C@@H](C)C2)ccn1` [5-fluoro-N-(2-methoxypyridin-4-yl)-2-[(3S)-3-methyl-4-(1H-pyrrolo[2,3-b]pyridin-1-ylacetyl)piperazin-1-yl]benzamide]: the negative logarithm of the IC50 (pIC50) is 7.74.
The result for `CC1CN(c2ccc(C(F)(F)F)cc2-c2cnc(N3CCC(S(C)(=O)=O)CC3)nc2)CCN1C(=O)Cn1cnc2cccnc21` (stereo not shown) [2-(3H-imidazo[4,5-b]pyridin-3-yl)-1-{2-methyl-4-[2-{2-[4-(methylsulfonyl)piperidin-1-yl]pyrimidin-5-yl}-4-(trifluoromethyl)phenyl]piperazin-1-yl}ethanone] reads 8.15.
With `CS(=O)(=O)c1ncc(-c2cc(F)ccc2N2CCN(C(=O)Cn3cnc4cccnc43)CC2)cn1` [1-(4-{4-fluoro-2-[2-(methylsulfonyl)pyrimidin-5-yl]phenyl}piperazin-1-yl)-2-(3H-imidazo[4,5-b]pyridin-3-yl)ethanone] the figure was 6.31; with `CNc1ncc(-c2cc(C#N)ccc2N2CCN(C(=O)Cn3ccc4cccnc43)CC2)cn1` [3-(2-Methylamino-pyrimidin-5-yl)-4-[4-(2-pyrrolo[2,3-b]pyridin-1-yl-acetyl)-piperazin-1-yl]-benzonitrile], 8.10; with `Cc1cc(C)n(CC(=O)N2CCN(c3ccccc3-c3ccc4cc[nH]c4c3)CC2)n1` [2-(3,5-Dimethyl-pyrazol-1-yl)-1-{4-[2-(1H-indol-6-yl)-phenyl]-piperazin-1-yl}-ethanone], 7.09.
The result for `Cc1cc(C)n(CC(=O)N2CCN(c3ccc(F)cc3C(=O)Nc3nc4c(s3)CN(C)CC4)C[C@H]2C)n1` [2-{(3R)-4-[(3,5-dimethyl-1H-pyrazol-1-yl)acetyl]-3-methylpiperazin-1-yl}-5-fluoro-N-(5-methyl-4,5,6,7-tetrahydro[1,3]thiazolo[5,4-c]pyridin-2-yl)benzamide] reads 7.82; that for `Cc1cc(C)n(CC(=O)N2CCN(c3ccc(F)cc3-c3cnc(N4CCC(S(C)(=O)=O)CC4)nc3)CC2)n1` [2-(3,5-dimethyl-1H-pyrazol-1-yl)-1-[4-(4-fluoro-2-{2-[4-(methylsulfonyl)piperidin-1-yl]pyrimidin-5-yl}phenyl)piperazin-1-yl]ethanone], 7.96; that for `CC1CN(c2ccc(F)cc2-c2cnc(N3CCC(S(C)(=O)=O)CC3)nc2)CCN1C(=O)Cn1ccc2cccnc21` (stereo not shown) [1-[4-(4-fluoro-2-{2-[4-(methylsulfonyl)piperidin-1-yl]pyrimidin-5-yl}phenyl)-2-methylpiperazin-1-yl]-2-(1H-pyrrolo[2,3-b]pyridin-1-yl)ethanone], 8.10.
`CSc1ncc(-c2cc(C#N)ccc2N2CCN(C(=O)Cn3nc(C)cc3C)CC2)cn1` [4-{4-[2-(3,5-Dimethyl-pyrazol-1-yl)-acetyl]-piperazin-1-yl}-3-(2-methylsulfanyl-pyrimidin-5-yl)-benzonitrile]: the pIC50 was 7.44.
With `O=C(Cn1ccc2cccnc21)N1CCN(c2ccc(Cl)cc2-c2cnc(N3CCOCC3)nc2)CC1` [1-{4-[4-Chloro-2-(2-morpholin-4-yl-pyrimidin-5-yl)-phenyl]-piperazin-1-yl}-2-pyrrolo[2,3-b]pyridin-1-yl-ethanone] the figure was 7.89.
With `CC(C)C(=O)N(C)CC(=O)N1CCN(c2ccc(F)cc2C(=O)Nc2nc3c(s2)CN(C)CC3)C[C@H]1C` [5-fluoro-2-{(3R)-3-methyl-4-[N-methyl-N-(2-methylpropanoyl)glycyl]piperazin-1-yl}-N-(5-methyl-4,5,6,7-tetrahydro[1,3]thiazolo[5,4-c]pyridin-2-yl)benzamide] the figure was 7.72; with `CS(=O)(=O)C1CCN(c2ncc(-c3cc(F)ccc3N3CCN(C(=O)Cn4c(=O)[nH]c5ccccc54)CC3)cn2)CC1` [1-{2-[4-(4-fluoro-2-{2-[4-(methylsulfonyl)piperidin-1-yl]pyrimidin-5-yl}phenyl)piperazin-1-yl]-2-oxoethyl}-1,3-dihydro-2H-benzimidazol-2-one], 8.15; with `Cc1cc(C)n(CC(=O)N2CCN(c3ccccc3-c3cnc(N4CCC(C)(C)CC4)nc3)CC2)n1` [1-(4-{2-[2-(4,4-Dimethyl-piperidin-1-yl)-pyrimidin-5-yl]-phenyl}-piperazin-1-yl)-2-(3,5-dimethyl-pyrazol-1-yl)-ethanone], 7.92.
The result for `C[C@@H]1CN(c2ccc(F)cc2C(=O)Nc2nc3c(s2)CN(C)CC3)CCN1C(=O)Cn1cnc2cccnc21` [5-fluoro-2-[(3R)-4-(3H-imidazo[4,5-b]pyridin-3-ylacetyl)-3-methylpiperazin-1-yl]-N-(5-methyl-4,5,6,7-tetrahydro[1,3]thiazolo[5,4-c]pyridin-2-yl)benzamide] reads 7.82.
Regarding `Cc1cc(C)n(CC(=O)N2CCN(c3ccccc3-c3cccc(Cl)c3)CC2)n1` [1-[4-(3′-Chloro-biphenyl-2-yl)-piperazin-1-yl]-2-(3,5-dimethyl-pyrazol-1-yl)-ethanone], the pIC50 was 6.95.
With `Cc1cn(CC(=O)N2CCN(c3ccccc3-c3ccc(C#N)nc3)CC2)c(C)n1` [5-(2-{4-[2-(2,4-Dimethyl-imidazol-1-yl)-acetyl]-piperazin-1-yl}-phenyl)-pyridine-2-carbonitrile] the figure was 7.33.
With `O=C(Cn1ccc2cccnc21)N1CCN(c2ccccc2N2Cc3ccccc3C2=O)CC1` [2-{2-[4-(2-Pyrrolo[2,3-b]pyridin-1-yl-acetyl)-piperazin-1-yl]-phenyl}-2,3-dihydro-isoindol-1-one] the figure was 7.32; with `Cc1cc(C)n(CC(=O)N2CCN(c3ccccc3-c3cnc(N4CC(C)OC(C)C4)nc3)CC2)n1` (stereo not shown) [1-(4-{2-[2-(2,6-Dimethyl-morpholin-4-yl)-pyrimidin-5-yl]-phenyl}-piperazin-1-yl)-2-(3,5-dimethyl-pyrazol-1-yl)-ethanone], 8.22; with `CC1CN(c2ccc(F)cc2-c2cnc(N3CCC(S(C)(=O)=O)CC3)nc2)CCN1C(=O)Cn1c(=O)[nH]c2ccccc21` (stereo not shown) [1-{2-[4-(4-fluoro-2-{2-[4-(methylsulfonyl)piperidin-1-yl]pyrimidin-5-yl}phenyl)-2-methylpiperazin-1-yl]-2-oxoethyl}-1,3-dihydro-2H-benzimidazol-2-one], 8.05.
The result for `CSc1ncc(-c2ccccc2N2CCN(C(=O)Cn3ccc4cccnc43)CC2)cn1` [1-{4-[2-(2-Methylsulfanyl-pyrimidin-5-yl)-phenyl]-piperazin-1-yl}-2-pyrrolo[2,3-b]pyridin-1-yl-ethanone] reads 8.40; that for `Cc1cc(C)n(CC(=O)N2CCN(c3ccc(Cl)cc3-c3cnc(N4CCOCC4)nc3)CC2)n1` [1-{4-[4-Chloro-2-(2-morpholin-4-yl-pyrimidin-5-yl)-phenyl]-piperazin-1-yl}-2-(3,5-dimethyl-pyrazol-1-yl)-ethanone], 7.96.
Consider `COc1ncc(-c2ccccc2N2CCN(C(=O)Cn3ccc4cc(F)cnc43)CC2)cn1` [2-(5-Fluoro-pyrrolo[2,3-b]pyridin-1-yl)-1-{4-[2-(2-methoxy-pyrimidin-5-yl)-phenyl]-piperazin-1-yl}-ethanone], for which the pIC50 is 8.10.
With `Cc1cc(C)n(CC(=O)N2CCN(c3ccc(C(F)(F)F)cc3-c3cnc(S(C)(=O)=O)nc3)CC2)n1` [2-(3,5-Dimethyl-pyrazol-1-yl)-1-{4-[2-(2-methanesulfonyl-pyrimidin-5-yl)-4-trifluoromethyl-phenyl]-piperazin-1-yl}-ethanone] the figure was 7.27; with `O=C(Cn1c(=O)[nH]c2ccccc21)N1CCN(c2ccccc2-c2ccccc2)CC1` [1-[2-(4-Biphenyl-2-yl-piperazin-1-yl)-2-oxo-ethyl]-1,3-dihydro-benzoimidazol-2-one], 6.85; with `O=C(Cn1ccc2cccnc21)N1CCN(c2ccccc2-c2ccc(Cl)nc2)CC1` [1-{4-[2-(6-Chloro-pyridin-3-yl)-phenyl]-piperazin-1-yl}-2-pyrrolo[2,3-b]pyridin-1-yl-ethanone], 7.51.
The result for `O=C(CN1Cc2ccccc2C1=O)N1CCN(c2ccc(F)cc2-c2cnc(N3CCCC3)nc2)CC1` [2-[2-(4-{4-fluoro-2-[2-(pyrrolidin-1-yl)pyrimidin-5-yl]phenyl}piperazin-1-yl)-2-oxoethyl]-2,3-dihydro-1H-isoindol-1-one] reads 7.82.
The result for `Cc1cc(C)n(CC(=O)N2CCN(c3ccccc3-c3cnc(N4CCC(F)(F)CC4)nc3)CC2)n1` [1-(4-{2-[2-(4,4-Difluoro-piperidin-1-yl)-pyrimidin-5-yl]-phenyl}-piperazin-1-yl)-2-(3,5-dimethyl-pyrazol-1-yl)-ethanone] reads 7.66; that for `O=C(CN1Cc2ccccc2C1=O)N1CCN(c2ccc(F)cc2-c2cnc(N3CCOCC3)nc2)CC1` [2-[2-(4-{4-fluoro-2-[2-(morpholin-4-yl)pyrimidin-5-yl]phenyl}piperazin-1-yl)-2-oxoethyl]-2,3-dihydro-1H-isoindol-1-one], 7.64.
